In brackets after ≈: the same amount, converted by molar mass. Blank lines part the entries; values can stand above or below the compound they belong to. Activity calls are given as the source filed them. The rule behind the calls is not given here.
Legend:
[1] = Solubility in phosphate buffer at pH 7.4; format: physicochemical
[2] = Fraction unbound in plasma (unknown origin); format: ADME, cell-free
[3] = Half life in CD1 mouse at 1 mg/kg, iv after 24 hrs by HPLC-MS/MS analysis; format: ADME, organism-based; details: in vivo
[4] = Volume of distribution at steady state in CD1 mouse at 1 mg/kg, iv after 24 hrs by HPLC-MS/MS analysis; format: ADME, organism-based; details: in vivo, read-out: Vdss
[5] = AUC in CD1 mouse at 1 mg/kg, iv after 24 hrs by HPLC-MS/MS analysis; format: ADME, organism-based; set-up: route intravenous, dose 1 mg/kg, time 24 hrs; details: in vivo
[6] = Blood clearance in CD1 mouse at 1 mg/kg, iv after 24 hrs by HPLC-MS/MS analysis; format: ADME, organism-based
[7] = Unbound clearance in CD1 mouse at 1 mg/kg, iv after 24 hrs by HPLC-MS/MS analysis; format: ADME, organism-based; details: in vivo
[8] = Half life in CD1 mouse at 1 mg/kg, po after 24 hrs by HPLC-MS/MS analysis; format: ADME, organism-based; details: in vivo
[9] = Cmax in CD1 mouse at 1 mg/kg, po after 24 hrs by HPLC-MS/MS analysis; format: ADME, organism-based; set-up: route oral, dose 1 mg/kg, time 24 hrs; details: in vivo
[10] = Tmax in CD1 mouse at 1 mg/kg, po after 24 hrs by HPLC-MS/MS analysis; format: ADME, organism-based; details: in vivo
[11] = AUC in CD1 mouse at 1 mg/kg, po after 24 hrs by HPLC-MS/MS analysis; format: ADME, organism-based; set-up: route oral, time 24 hrs, dose 1 mg/kg; details: in vivo
[12] = Unbound AUC in CD1 mouse at 1 mg/kg, po after 24 hrs by HPLC-MS/MS analysis; format: ADME, organism-based; details: in vivo
[13] = Oral bioavailability in CD1 mouse at 1 mg/kg after 24 hrs by HPLC-MS/MS analysis; format: ADME, organism-based; details: in vivo
Tumor necrosis factor [14] = target: T1, Tumor necrosis factor (Homo sapiens, UniProt P01375)
T1 sequence (P01375 whole entry): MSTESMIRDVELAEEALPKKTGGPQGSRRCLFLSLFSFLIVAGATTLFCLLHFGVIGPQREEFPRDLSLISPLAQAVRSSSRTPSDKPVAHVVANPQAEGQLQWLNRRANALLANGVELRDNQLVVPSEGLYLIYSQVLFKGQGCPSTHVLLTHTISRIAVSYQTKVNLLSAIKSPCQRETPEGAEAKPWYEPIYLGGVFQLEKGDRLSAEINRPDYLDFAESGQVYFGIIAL
Description: Binding affinity to biotinylated human TNFalpha trimer (77 to 233 residues) expressed in Escherichia coli BL21(DE3) by SPR analysis

Tumor necrosis factor [15] = target: T1, Tumor necrosis factor; remark: listed apart in the source
Description: Inhibition of probe-5 binding to human TNFalpha (77 to 233 residues) at 1 nM by fluorescence polarization assay

Tumor necrosis factor [16] = target: T1, Tumor necrosis factor; remark: listed apart in the source
Description: Binding affinity to biotinylated human TNFalpha trimer (77 to 233 residues) expressed in Escherichia coli BL21(DE3) assessed as binding half life by SPR analysis

Tumor necrosis factor [17] = target: T1, Tumor necrosis factor; remark: listed apart in the source
Description: Induction of stabilization of biotinylated human TNFalpha trimer (77 to 233 residues) expressed in Escherichia coli BL21(DE3) assessed as change in melting temperature

Tumor necrosis factor [18] = target: T1, Tumor necrosis factor; details: dose 1.0 nM, TDE = time-dependent effect
Mus musculus = assay: Antiarthritic activity in DBA/J mouse model of CFA and glucose-6-phosphate isomerase-induced arthritis model assessed as inhibition of paw swelling at 30 to 100 mg/kg, po BID beginning 1 hr prior to GPI immunization and measured on days 13, 15, and 17 after GPI immunization; format: functional, organism-based; details: dose 30-100 mg/kg, time 13-17 day
[19] = Drug uptake in DBA/J mouse model of CFA and glucose-6-phosphate isomerase-induced arthritis model at 10 to 100 mg/kg, po BID beginning 1 hr prior to GPI immunization and measured up to day 17 after GPI immunization by HPLC-MS/MS analysis; format: ADME, organism-based; details: in vivo, 408 h, dose 10-100 mg/kg, time 17 day
[20] = (§1) Cmax in DBA/J mouse model of CFA and glucose-6-phosphate isomerase-induced arthritis model at 10 mg/kg, po BID beginning 1 hr prior to GPI immunization and measured up to day 17 after GPI immunization by HPLC-MS/MS analysis; format: ADME, organism-based; set-up: route oral, time 17 day, dose 10 mg/kg; details: in vivo
[21] = (§2) Cmax in DBA/J mouse model of CFA and glucose-6-phosphate isomerase-induced arthritis model at 30 mg/kg, po BID beginning 1 hr prior to GPI immunization and measured up to day 17 after GPI immunization by HPLC-MS/MS analysis; format: ADME, organism-based; set-up: route oral, time 17 day, dose 30 mg/kg; details: in vivo
[22] = (§3) Cmax in DBA/J mouse model of CFA and glucose-6-phosphate isomerase-induced arthritis model at 100 mg/kg, po BID beginning 1 hr prior to GPI immunization and measured up to day 17 after GPI immunization by HPLC-MS/MS analysis; format: ADME, organism-based; set-up: route oral, time 17 day, dose 100 mg/kg; details: in vivo
[23] = AUC (0 to 12 hrs) in DBA/J mouse model of CFA and glucose-6-phosphate isomerase-induced arthritis model at 10 mg/kg, po BID beginning 1 hr prior to GPI immunization and measured up to day 17 after GPI immunization by HPLC-MS/MS analysis; format: ADME, organism-based; set-up: route oral, time 17 day, dose 10 mg/kg; details: in vivo
[24] = AUC (0 to 12 hrs) in DBA/J mouse model of CFA and glucose-6-phosphate isomerase-induced arthritis model at 30 mg/kg, po BID beginning 1 hr prior to GPI immunization and measured up to day 17 after GPI immunization by HPLC-MS/MS analysis; format: ADME, organism-based; set-up: route oral, time 17 day, dose 30 mg/kg; details: in vivo
[25] = AUC (0 to 12 hrs) in DBA/J mouse model of CFA and glucose-6-phosphate isomerase-induced arthritis model at 100 mg/kg, po BID beginning 1 hr prior to GPI immunization and measured up to day 17 after GPI immunization by HPLC-MS/MS analysis; format: ADME, organism-based; set-up: route oral, dose 100 mg/kg, time 17 day; details: in vivo
[26] = as §1, with “Selectivity index, ratio of Cmax” for “Cmax”, “analysis to EC50 for inhibition of TNFalpha in mouse L929 cells exposed to compound incubated for 1 hr with mouse TNFalpha by luminescence based assay” for “analysis”; details: time 17 day
[27] = as §2, with “Selectivity index, ratio of Cmax” for “Cmax”, “analysis to EC50 for inhibition of TNFalpha in mouse L929 cells exposed to compound incubated for 1 hr with mouse TNFalpha by luminescence based assay” for “analysis”; details: time 17 day
[28] = as §3, with “Selectivity index, ratio of Cmax” for “Cmax”, “analysis to EC50 for inhibition of TNFalpha in mouse L929 cells exposed to compound incubated for 1 hr with mouse TNFalpha by luminescence based assay” for “analysis”
[29] = Intrinsic clearance in mouse liver microsomes; format: ADME, Microsome; details: read-out: CLH (converted)
[30] = Intrinsic clearance in human liver microsomes; format: ADME, Microsome; details: read-out: CLH (converted)

- solubility [1]: 48.4 µM (≈ 24.8 µg/mL)
- fraction unbound [2]: 0.137
- half-life [3]: 1.4 h
- Vd [4]: 17.3 L/kg
- AUC at 24 h [5]: 124 ng·h/mL
- clearance [6]: 146 mL/min/kg
- CL free [7]: 955 mL/min/kg
- half-life [8]: 2 h
- Cmax [9]: 16.7 ng/mL
- Tmax [10]: 1 h
- AUC at 24 h [11]: 62.7 ng·h/mL
- fAUC [12]: 9.6 ng·h/mL
- bioavailability [13]: 50.8%
SMILES: C[C@@H]1CN(c2ncc(-c3ccc4c(c3)N(Cc3cccnc3C#N)C(C)(C)C4=O)cn2)CCN1C(=O)CO
- Kd (Tumor necrosis factor [14]): 7.3 nM
- IC50 (Tumor necrosis factor [15]): 163 nM
- T1/2 (Tumor necrosis factor [16]): 62.3 h

SMILES: c1ccc(-c2cccc3ccncc23)c(OCCc2ccc(-c3cccc4ccncc34)cc2)c1
- Kd (Tumor necrosis factor [14]): 74 nM
- IC50 (Tumor necrosis factor [15]): 1350 nM
- ΔTm (Tumor necrosis factor [17]): 7 °C

SMILES: Cc1nc2ccccc2n1Cc1ccccc1
- Kd (Tumor necrosis factor [14]): 325000 nM

SMILES: N#CCc1ccc(-c2cccc3ccncc23)cc1
- Kd (Tumor necrosis factor [14]): 2700 nM
- IC50 (Tumor necrosis factor [15]): 7960 nM
- ΔTm (Tumor necrosis factor [17]): 4 °C

SMILES: Cc1ccc(Cn2cnc3ccccc32)c(C)c1
- Kd (Tumor necrosis factor [14]): 106000 nM

SMILES: c1ccc(-c2cccc3ccncc23)cc1
- Kd (Tumor necrosis factor [14]): 60000 nM
- IC50 (Tumor necrosis factor [15]): 25300 nM

SMILES: c1ccc(Cn2cnc3ccccc32)cc1
- Kd (Tumor necrosis factor [14]): 300000 nM
- IC50 (Tumor necrosis factor [15]): 204000 nM

SMILES: O=C(NCCOCCOCCOCc1ccc(-c2cccc3ccncc23)c(OCCc2ccc(-c3cccc4ccncc34)cc2)c1)c1ccc2c(c1)C(=O)OC21c2cc(F)c(O)cc2Oc2cc(O)c(F)cc21
- Activity (Tumor necrosis factor [18]): Tde

- half-life [3]: 1.1 h
- Vd [4]: 2.12 L/kg
- AUC at 24 h [5]: 523 ng·h/mL
- clearance [6]: 32 mL/min/kg
- CL free [7]: 198 mL/min/kg
- half-life [8]: 1.6 h
- Cmax [9]: 81.7 ng/mL
- Tmax [10]: 1 h
- AUC at 24 h [11]: 263 ng·h/mL
- fAUC [12]: 42.4 ng·h/mL
- bioavailability [13]: 50.4%
- Drug uptake [19]: Dose-dependent effect
- Cmax [20]: 767 ng/mL
- Cmax [21]: 2980 ng/mL
- Cmax [22]: 6190 ng/mL
- AUC at 408 h [23]: 3830 ng·h/mL
- AUC at 408 h [24]: 10200 ng·h/mL
- AUC at 408 h [25]: 46300 ng·h/mL
SMILES: CC1(C)C(=O)c2ccc(-c3cnc(N4CCN5C(=O)NC[C@@H]5C4)nc3)cc2N1Cc1cccnc1C#N
- Activity (Mus musculus): Active
- Ratio [26]: 2.1
- Ratio [27]: 8.3
- Ratio [28]: 17
- Kd (Tumor necrosis factor [14]): 6.8 nM
- IC50 (Tumor necrosis factor [15]): 71 nM
- T1/2 (Tumor necrosis factor [16]): 0.9 h

SMILES: CN1CCN(Cc2ccc(-c3c[nH]c4ccncc34)c(OCCc3ccc(-c4cccc5ccncc45)cc3)c2)CC1
- Kd (Tumor necrosis factor [14]): 2.4 nM
- IC50 (Tumor necrosis factor [15]): 29 nM
- ΔTm (Tumor necrosis factor [17]): > 15 °C

- CLint scaled [29]: 1680 mL/min/kg
- CLint scaled [30]: 2280 mL/min/kg
- solubility [1]: 1.2 µM (≈ 0.662 µg/mL)
- fraction unbound [2]: 0.00293
- half-life [3]: 4.4 h
- Vd [4]: 2.12 L/kg
- AUC at 24 h [5]: 3110 ng·h/mL
- clearance [6]: 6.15 mL/min/kg
- CL free [7]: 2100 mL/min/kg
- half-life [8]: 4.7 h
- Cmax [9]: 200 ng/mL
- Tmax [10]: 1.8 h
- AUC at 24 h [11]: 2340 ng·h/mL
- fAUC [12]: 6.86 ng·h/mL
- bioavailability [13]: 75.4%
SMILES: C[C@@H]1CN(c2ncc(-c3ccc4c(c3)N(Cc3ccccc3OC(F)F)C(C)(C)C4=O)cn2)CCN1C(=O)CO
- Kd (Tumor necrosis factor [14]): 1.3 nM
- IC50 (Tumor necrosis factor [15]): 189 nM
- T1/2 (Tumor necrosis factor [16]): 42.8 h
